Measured values: patent publication US6441175B1, “1-(N'-arylalkylaminoalkyl)aminoisoquinolines: a new class of dopamine receptor subtype” (Neurogen Corporation, priority 1997, dated 2002)

Legend:
D2 receptors = molecular target: T1, D2 receptors (Chlorocebus aethiops, UniProt P52702); assay: Assay for D2 and D4 receptor binding activity (COS cells, 3H-YM 09151-2), D2; design: species or system African Green monkey; conditions: recombinant D2 in COS cells; 0.5 nM 3H-YM 09151-2
T1 construct: expressed in transfected cells; host or cells: COS cells
Method: (§1) Assay For D2 And D4 Receptor Binding Activity
(§2) Pellets of COS cells containing recombinantly produced D2 or D4 receptors from African Green monkey were used for the assays. The sample is homogenized in 100 volumes (w/vol) of 0.05 M Tris HCl buffer at 4° C. and pH 7.4. The sample is then centrifuged at 30,000×g and resuspended and rehomogenized. The sample is then centrifuged as described and the final tissue sample is frozen until use. The tissue is resuspended 1:20 (wt/vol) in 0.05 M Tris HCl buffer containing 100 mM NaCl.
(§3) Incubations are carried out at 48° C. and contain 0.4 ml of tissue sample, 0.5 nM ^3H-YM 09151-2 and the compound of interest in a total incubation of 1.0 ml. Non-specific binding is defined as that binding found in the presence of […] spiperone; without further additions, nonspecific binding is less than 20% of total binding.

D4 receptors = assay: Assay for D2 and D4 receptor binding activity (COS cells, 3H-YM 09151-2), D4; design: species or system African Green monkey; conditions: recombinant D4 in COS cells; 0.5 nM 3H-YM 09151-2; read-out: D4 K1
Method: as §1, §2, §3

T1 sequence (P52702 whole entry): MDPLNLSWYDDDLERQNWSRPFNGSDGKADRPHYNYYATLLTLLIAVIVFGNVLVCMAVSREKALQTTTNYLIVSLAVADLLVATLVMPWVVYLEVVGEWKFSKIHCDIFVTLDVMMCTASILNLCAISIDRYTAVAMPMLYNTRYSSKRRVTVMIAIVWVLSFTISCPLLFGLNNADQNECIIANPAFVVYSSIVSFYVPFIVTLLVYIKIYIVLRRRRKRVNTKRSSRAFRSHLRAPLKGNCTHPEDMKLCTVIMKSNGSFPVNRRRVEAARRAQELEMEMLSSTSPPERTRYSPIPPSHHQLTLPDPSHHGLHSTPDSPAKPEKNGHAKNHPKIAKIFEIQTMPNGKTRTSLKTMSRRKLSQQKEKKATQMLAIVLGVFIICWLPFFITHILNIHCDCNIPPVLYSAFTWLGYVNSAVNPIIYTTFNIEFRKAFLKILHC

melting point [°C]	Ki (D2 receptors) [nM]	Compound	Ki (D4 receptors) [nM]
175 to 177		CN(CCCc1ccccc1)CCNC1=NCc2ccccc21 [Compound 3, 1-(N-[2-{N′-(3-phenylpropyl)-N′-methyl}aminoethyl])aminoisoindole dioxolate]	
	1500	1-(1-[2-{(4-[5-Fluoropyrimidin-2-yl])piperazin-1-yl}]ethyl)aminoisoquinoline hydrobromide [Compound 9]	13
	773	1-(1-[3-{(4-Pyridin-2-yl)piperazin-1-yl}]propyl)aminoisoquinoline hydrobromide [Compound 10]	2
